Measured values from patent US12421276B2 (priority 2016, dated 2025).
Blank lines part the entries; values can stand above or below the compound they belong to. Where a SMILES comes first, the peptide text is derived from it. [ ]: non-standard residue; d: D form. The star is where a group is joined. ξ: configuration not given here. ξpY = NC(Cc1ccc(OP(=O)(O)O)cc1)C(=O)O; Ile(3ξ) = CCC(C)[C@H](N)C(=O)O; Hexanoyl = CCCCCC(=O)*; Ahx = NCCCCCC(=O)O

Experiments:
[1] = Plasma stability study, human plasma; assay type: in vitro ADME; conditions: human, plasma
Description: (§1) Human and rat plasma (K2 EDTA) were obtained from Bioreclamation.
(§2) Compounds were dissolved as 0.3 mM DMSO stocks. Compounds were transferred to the plasma at 1 μM on a 96-well deep well plate. After mixing, samples were transferred to several 96-well plates (25 μL/well), and incubated at 37° C. The extent of metabolism was calculated as the disappearance of the test compound, compared to the 0-min control reaction incubations. Propantheline was included as a positive control to verify assay performance.
(§3) At each of the time points, 150 μL of quench solution (50% acetonitrile, 50% methanol with 0.05% formic acid) with internal standard (bucetin for positive ESI mode and warfarin for negative ESI mode) was transferred to each well. Plates were sealed and centrifuged at 4° C. for 15 minutes at 4000 rpm. The supernatant was transferred to fresh plates for LC/MS/MS analysis.
(§4) Elution conditions are detailed in the table below.
(§5) Initial rates of the clearance of test compounds were calculated using linear regression of semi-log plot of % remaining of compounds versus time. The elimination rate constant (equals to −slope) of the linear regression was then used to determine t½ values.

[2] = Plasma stability study, rat plasma; assay type: in vitro ADME; conditions: rat, plasma
Description: as §1, §2, §3, §4, §5

[3] = tested on: Caco-2 cells; test: Caco-2 permeability study with or without P-gp inhibitor GF120918; conditions: for Abs. Quotient: (Papp A-B with inhibitor − without inhibitor)/Papp A-B with inhibitor; for Caco-2 Cells Permeability Recovery Rate: 1 hr, pH 7.4
Description: Buffer=HBSS, pH 7.4 with 5 mM HEPES
Caco-2 cell plates were obtained commercially and were maintained for 21 days at 37° C. with 5% CO2. Cells were washed with Hank's Balanced Salt Solution (HBSS) 30 min before starting the experiment. Test compound solutions were prepared by diluting from DMSO stock into HBSS buffer in the presence or absence of 10 μM of P-gp inhibitor GF120918. The final DMSO concentration is 0.2%. Prior to each experiment, cell monolayer integrity was verified by transendothelial electrical resistance (TEER). Transport experiment was initiated by adding test compounds to the apical (75 μL) side. Transport plates were incubated at 37° C. in a humidified incubator with 5% CO2. Samples were taken from the donor and acceptor compartments after 1 hr and analyzed by liquid chromatography with tandem mass spectrometry (LC/MS/MS).
Apparent permeability (Papp) values were calculated using the following equation: Papp=(dQ/dt)/A/C0
where dQ/dt is the initial rate of amount of test compound transported across cell monolayer, A is the surface area of the filter membrane, and C0 is the initial concentration of the test compound. C0 is calculated for each condition using a 4-point calibration curve.
Absorption quotient between the two assay conditions was calculated by the following equation:
Absorption quotient (AQ)=(Papp, A-B with inhibitor−Papp, A-B without inhibitor)/Papp, A-B with inhibitor where Papp, A-B with inhibitor and Papp, A-B without inhibitor represent the apparent permeability of test compound from the apical to basal side of the cellular monolayer in the presence and absence of 10 μM P-gp inhibitor GF120918, respectively.
All samples were analyzed on LC/MS/MS using an AB Sciex API 4000 instrument, coupled to a Shimadzu LC-20AD LC Pump system. Analytical samples were separated using a Waters Atlantis T3 dC18 reverse phase HPLC column (10 mm×2.1 mm) at a flow rate of 0.5 mL/min. The mobile phase consisted of 0.1% formic acid in water (solvent A) and 0.1% formic acid in acetonitrile (solvent B).

[4] = Metabolic stability in simulated intestinal fluid (SIF), pH 6.8, with or without pancreatin; assay type: in vitro ADME; conditions: 5 μM, 37° C.
Description: (§6) Metabolic Stability in SIF and SGF (Simulated Intestinal and Gastric Fluid)
Buffer 3=SIF without enzyme
Buffer 4=SIF with 1% pancreatin
(§7) SIF was prepared freshly with 8.7 mM NaOH, 28.65 mM NaH2PO4, 105.85 mM NaCl, with a final pH of 6.8. SGF was prepared freshly with 34.2 mM NaCl, with a final pH of 1.2. Enzymes such as pepsin or pancreatin were added to some buffers. Human and rat plasma (K2 EDTA) were purchased from BioreclamationIVT.
(§8) Compounds were dissolved as 1.5 mM DMSO stocks. Compounds were transferred to SIF, SGF, or plasma at 5 μM on a 96-well deep well plate. After mixing, samples were transferred to several 96-well plates (25 μL/well), and incubated at 37° C. The extent of metabolism was calculated as the disappearance of the test compound, compared to the 0-min control reaction incubations. Candesartan Cilexetil and omeprazole were included as positive controls for SIF and SGF, respectively, to verify assay performance.
as §3, with “(100% acetonitrile” for “(50% acetonitrile, 50% methanol”, “0.1%” for “0.05%”
as §4, §5

[5] = Metabolic stability in simulated gastric fluid (SGF), pH 1.2, with or without pepsin; assay type: in vitro ADME; conditions: 5 μM, 37° C.
Description: as §6
Buffer 1=SGF without enzyme
Buffer 2=SGF with 0.32% pepsin
as §7, §8
as §3, with “(100% acetonitrile” for “(50% acetonitrile, 50% methanol”, “0.1%” for “0.05%”
as §4, §5

[6] = assay type: in vivo, rat; conditions: Rat, PO, 10 mg/kg equiv., n = 4
Description: • 1. Eight (8) male JVC SD rats (purchased from Charles River Lab) were monitored daily for body condition and health status during the 3-5 days acclimation period. The rats were randomly assigned into […] (n=4). • 2. […] The dosed rats were individually placed into a metabolic cage, and have access to food and water at all times. The urine from each rat was collected daily from the metabolic cages, and kept in dry ice. • 4. At predose (0 min), 5 min, 15 min, 30 min, 1 hr, 2 hr, 8 hr, and 24 hr post dosing, approximately 200 ul blood samples were collected from each rat and transferred to EDTA tubes. • 5. The blood samples in EDTA vials were centrifuged at 4° C. and 6,000 rpm for 10 minutes to generate ˜100 μl of plasma per sample. Blood samples were processed as quickly as possible and remain no longer than 2 min at room temperature and no longer than 15 minutes at 4° C. prior to processing. • 6. All samples were transferred for bioanalytic assay using LCMS

[7] = +GF120918 (10 μM), 10 μM compound
[8] = analyte: Parent (BASE STRUCTURE)

- Plasma Stability Half-Life [1]: 13.2 min
- Plasma Stability Half-Life [2]: 31.9 min
- Abs. Quotient [3]: 0.70
- Caco-2 Cells Permeability Recovery Rate [3, 7]: 94%
- Caco-2 Cells Permeability Recovery Rate ([3]; −GF120918, 10 μM compound): 90%
Structure (SMILES): CCCCCC(=O)NC(Cc1ccc(OC(=O)C(N)C(C)C)cc1)C(=O)NC(C(=O)NCCCCCC(N)=O)C(C)CC (stereo not drawn) [Compound A27] (Hexanoyl-Tyr(Val)-Ile-[Ahx]-NH2; configuration not given here)

- Plasma Stability Half-Life [1]: 31.3 min
- Plasma Stability Half-Life [2]: 8.2 min
- Abs. Quotient [3]: 0.78
- Caco-2 Cells Permeability Recovery Rate [3, 7]: 96%
- Caco-2 Cells Permeability Recovery Rate ([3]; −GF120918, 10 μM compound): 91%
Structure (SMILES): CCCCCC(=O)NC(Cc1ccc(OC(=O)CN2CCOCC2)cc1)C(=O)NC(C(=O)NCCCCCC(N)=O)C(C)CC (stereo not drawn) [Compound A23]

Structure (SMILES): CCCCCC(=O)NC(Cc1ccc(OP(=O)(O)O)cc1)C(=O)N[C@H](C(=O)NCCCCCC(N)=O)C(C)CC.N.N (stereo partly drawn) [Compound A29] (Hexanoyl-[ξpY]-[Ile(3ξ)]-[Ahx]-NH2)
- SIF Stability (pH 6.8) Half-Life (min) ([4]; +Pancreatin (1%)): Neg.
- SIF Stability (pH 6.8) 0 min ([4]; +Pancreatin (1%)): 100%
- SIF Stability (pH 6.8) 60 min ([4]; +Pancreatin (1%)): 94%
- SIF Stability (pH 6.8) 120 min ([4]; +Pancreatin (1%)): 98%
- SIF Stability (pH 6.8) 240 min ([4]; +Pancreatin (1%)): 104%
- SIF Stability (pH 6.8) Half-Life (min) ([4]; −Pancreatin): Neg.
- SIF Stability (pH 6.8) 0 min ([4]; −Pancreatin): 100%
- SIF Stability (pH 6.8) 60 min ([4]; −Pancreatin): 96%
- SIF Stability (pH 6.8) 120 min ([4]; −Pancreatin): 97%
- SIF Stability (pH 6.8) 240 min ([4]; −Pancreatin): 103%
- SGF Stability (pH 1.2) Half-Life (min) ([5]; +Pepsin (0.32%)): 225.0 min
- SGF Stability (pH 1.2) 0 min ([5]; +Pepsin (0.32%)): 100%
- SGF Stability (pH 1.2) 60 min ([5]; +Pepsin (0.32%)): 86%
- SGF Stability (pH 1.2) 120 min ([5]; +Pepsin (0.32%)): 63%
- SGF Stability (pH 1.2) 240 min ([5]; +Pepsin (0.32%)): 49%
- SGF Stability (pH 1.2) Half-Life (min) ([5]; −Pepsin): Neg.
- SGF Stability (pH 1.2) 0 min ([5]; −Pepsin): 100%
- SGF Stability (pH 1.2) 60 min ([5]; −Pepsin): 117%
- SGF Stability (pH 1.2) 120 min ([5]; −Pepsin): 129%
- SGF Stability (pH 1.2) 240 min ([5]; −Pepsin): 123%
- AUC0-24 [6, 8]: 35.9 ± 27.6 ng·h/mL
- AUC0-inf [6, 8]: 48.6 ± 26.5 ng·h/mL
- Cmax [6, 8]: 39.7 ± 74.2 ng/mL
- Tmax (h) [6, 8]: 2.1 ± 4^ h
- half-life [6, 8]: 942 ± 858 min
- Tmax ([6]; analyte: Prodrug): 0 h
- Abs. Quotient [3]: 0.83
- Caco-2 Cells Permeability Recovery Rate [3, 7]: 76%
- Caco-2 Cells Permeability Recovery Rate ([3]; −GF120918, 10 μM compound): 86%
